Source: patent US20160106439A1, “PNEUMATIC TOURNIQUET” (BIONUMERIK PHARMACEUTICALS, INC., priority 2013, published 2016)
Where two headings read alike, the source gives them in different places.

Assays:
[1] = target: T1, E13K, D16K, E95K, E103K Thioredoxin (Homo sapiens, UniProt P10599, D16K/E103K/E13K/E95K); assay: X-ray crystallography of Tavocept-derived mesna adduct on Trx; type: binding; details: 40 mM Tavocept
T1 construct: made in house; host or cells: E. coli BL21(DE3), pET-15b system
T1 sequence (P10599 1-105 E13K/D16K/E95K/E103K): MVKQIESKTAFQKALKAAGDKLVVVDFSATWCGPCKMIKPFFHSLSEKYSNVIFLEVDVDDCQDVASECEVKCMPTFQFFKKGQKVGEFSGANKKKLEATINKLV
Method: Adduct was prepared as described above with some modifications designed to increase the likelihood of success in crystallization of the protein. […] This reaction was incubated for 1 hour at 30° C. followed by overnight incubation at 4° C. […] Aliquots of this solution were analyzed by ESI LC-MS to confirm the presence of adduct(s) prior to initiation of crystallization experiments.
These initial broad screens produced crystals under a wide range of conditions (data not shown) and the screens used included: (i) PEGION, CRYSTALS HT, and PEGRX (Hampton Research) and (ii) JCSG and BASIC (JENA Biosciences). Multiple rounds of optimization were completed and included fine screens, varying the protein concentration and varying the protein to reservoir ratios to obtain diffraction quality crystals. In the Trx pH 9.0/8.5 structure (adduct formed at pH 9.0, crystals grown at pH 8.5), the best crystals were obtained in 20% ethanol, 0.1 M Tris (at 60 mg/mL Trx protein) and diffracted to 2.5 Å (C2 space group). In Trx pH 9.0/7.0 (adduct formed at pH 9.0, crystals grown at pH 7.0), the best crystals were obtained in 20% PEG3350, 0.2 M KCl (60 mg/mL Trx protein) and diffracted to 2.8 Å (C2 space group). In Trx pH 7.0/7.0 (adduct formed at pH 7.0, crystals grown at pH 7.0), the best crystals were obtained in 28% PEG3350, 0.2M KCl (160 mg/mL Trx protein) and diffracted to 1.85 Å resolution (P21 space group).
The solution obtained was consistent with four molecules in the crystal asymmetric unit. […] Molecules C and D were substantially rebuilt and the Tavocept-derived mesna adduct added after protein rebuilding was complete. The structure solution was supported by contiguous electron density for the entire chain trace of each molecule, landmark side chain density features matching the amino acid sequence including cysteines, absence of phi-psi violations, and final R/Rfree values in the normal range. […] For the Trx pH 9.0/8.5 structure, residual density observed near Cys69 of molecule A was modeled as a Tavocept-derived mesna adduct in a dual conformation. […]

[2] = test system: Stage IV primary adenocarcinoma of the lung; assay: Tavocept Phase III Clinical Trial (Interim Analysis); type: in vivo, patients
Description: In the Tavocept Phase III Clinical Trial pre-specification was made through stratification factors including sex (i.e., male versus female) and taxane treatment (i.e., paclitaxel versus docetaxel). Eligible patients had not received prior drug treatment for their cancer, and inclusion in the trial was also allowed for patients who had relapsed following surgery for earlier stage disease as well as patients with central nervous system metastasis. A total of 540 patients were enrolled on the trial.
The primary endpoint of this study was overall survival (OS); defined as the time period from the date of patient randomization to the date of death due to any cause.
All patients received standard combination chemotherapy (taxane agent plus cisplatin) and either Tavocept or placebo.
The primary endpoint for analysis was the duration of overall survival, defined as the time from the date of randomization to the date of death due to any cause. The number of mortality events used for the final analysis depended upon the number of patients enrolled into the study (provided the sample size was adjusted at the interim analysis). For the primary analysis, the expected number of total mortality events was approximately 416 mortality events for a sample size of 575 patients.
The one-sided log-rank test was performed in order to allow the application of the adaptive methodology. Details of this 2-stage adaptive design are described below. Kaplan-Meier survival curves (including identification of censored observations) was presented by treatment group, as well as median survival times and their 95% confidence intervals.
The following specific endpoints were evaluated with pre-specified analyses in order to evaluate for potential clinically and statistically significant differences between Tavocept- and placebo-treated patients.
The incidence of cisplatin renal toxicity and anemia, and the impact of emesis on daily life were analyzed using the Cochran-Mantel-Haenszel (CMH) tests for proportions. The CMH test was applied in the comparison between Tavocept and placebo where adjustment for prognostic factors is clinically important (e.g., adjusting for baseline characteristics). To control for Type I error due to multiple comparisons of safety data, a nominal, 2-sided p-value of less than 0.0125 was used for each comparison of renal toxicity, anemia, and emesis.

WT EGFR kinase = WT EGFR kinase (Homo sapiens, UniProt P00533); assay: WT EGFR kinase assay (ADP-glo)
WT EGFR kinase, sequence (P00533 25-1210): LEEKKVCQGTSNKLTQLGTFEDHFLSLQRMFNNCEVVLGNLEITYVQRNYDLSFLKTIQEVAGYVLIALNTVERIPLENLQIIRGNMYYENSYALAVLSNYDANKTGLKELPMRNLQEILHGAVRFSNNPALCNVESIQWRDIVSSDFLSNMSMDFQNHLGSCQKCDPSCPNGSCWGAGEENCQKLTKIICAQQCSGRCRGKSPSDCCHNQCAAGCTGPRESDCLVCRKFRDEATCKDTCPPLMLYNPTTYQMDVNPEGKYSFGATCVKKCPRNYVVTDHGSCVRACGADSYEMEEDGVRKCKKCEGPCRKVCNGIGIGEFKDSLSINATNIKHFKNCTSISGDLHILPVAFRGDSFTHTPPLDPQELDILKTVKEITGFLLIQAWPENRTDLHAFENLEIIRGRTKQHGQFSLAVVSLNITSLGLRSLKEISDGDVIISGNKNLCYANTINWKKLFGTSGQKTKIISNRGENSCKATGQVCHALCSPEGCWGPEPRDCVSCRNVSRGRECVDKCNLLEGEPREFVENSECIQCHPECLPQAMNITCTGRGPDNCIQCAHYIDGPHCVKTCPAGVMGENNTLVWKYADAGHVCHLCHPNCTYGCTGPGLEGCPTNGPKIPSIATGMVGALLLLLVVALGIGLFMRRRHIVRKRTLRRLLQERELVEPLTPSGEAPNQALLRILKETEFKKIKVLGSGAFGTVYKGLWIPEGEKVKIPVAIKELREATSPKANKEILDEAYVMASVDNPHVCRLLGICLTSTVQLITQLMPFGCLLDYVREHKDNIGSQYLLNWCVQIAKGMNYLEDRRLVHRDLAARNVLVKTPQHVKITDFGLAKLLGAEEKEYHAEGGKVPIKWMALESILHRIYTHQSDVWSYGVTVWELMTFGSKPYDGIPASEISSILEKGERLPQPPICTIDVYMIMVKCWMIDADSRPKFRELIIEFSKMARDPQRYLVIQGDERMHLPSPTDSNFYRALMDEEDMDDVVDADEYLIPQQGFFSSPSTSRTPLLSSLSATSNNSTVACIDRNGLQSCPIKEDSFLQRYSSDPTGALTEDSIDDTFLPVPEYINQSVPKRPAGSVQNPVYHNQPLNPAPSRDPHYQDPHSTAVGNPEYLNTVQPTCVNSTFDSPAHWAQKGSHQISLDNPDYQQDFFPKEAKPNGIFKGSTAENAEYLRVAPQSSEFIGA

[3] = Female Non-Smokers receiving paclitaxel and cisplatin
[4] = Females receiving paclitaxel and cisplatin
[5] = Male & Female Non-Smokers receiving paclitaxel and cisplatin
[6] = read-out: inhibition of WT EGFR kinase activity

With `O=S(=O)([O-])CCSSCCS(=O)(=O)[O-].[Na+].[Na+]` [Tavocept, disodium 2,2′-dithio-bis-ethane sulfonate] the “Tavocept-derived mesna adduct sites on Trx” value ([1]; Trx pH 7.0/7.0 structure) was “clearly visible on Cys69 in both molecules A and B”, the “Tavocept-derived mesna adduct sites on Trx” value ([1]; Trx pH 9.0/7.0 structure) was “clearly visible on both Cys69 and Cys62 in both molecules A and B” and the “Tavocept-derived mesna adduct sites on Trx” value ([1]; Trx pH 9.0/8.5 structure) was “clearly visible on Cys69 in both molecules A and B”. For the same compound, the Median survival [2, 3] was 27.0 months, the “Median survival advantage vs placebo” value [2, 3] was 13.6 months and the Median survival [2, 4] was 25.0 months. The “Median survival advantage vs placebo” value [2, 4] was 11.8 months, the Median survival [2, 5] was 25.2 months and the “Median survival advantage vs placebo” value [2, 5] was 12 months. For the same compound, the “Median survival advantage vs placebo” value ([2]; PS 1 ECOG Performance Status subjects) was 2.82 months, the “Median survival advantage vs placebo” value ([2]; PS 1 ECOG females receiving paclitaxel and cisplatin) was 11.1 months and the “Median survival advantage vs placebo” value ([2]; PS 1 ECOG males and females receiving paclitaxel and cisplatin) was 4.0 months. It also gave a Median survival ([2]; Stage IV M1b subjects) of 11.33 months, a 2-year survival ([2]; all females receiving paclitaxel and cisplatin) of 51% and a 2-year survival ([2]; all subjects receiving paclitaxel and cisplatin) of 30%. The “Overall median survival advantage vs placebo” value ([2]; all subjects, paclitaxel or docetaxel plus cisplatin, P=0.723) was “greater than 2 month”, the “Protection against chemotherapy-induced kidney toxicity” value ([2]; compared to placebo, P=0.0528) was “improvement in the relative creatine decrease from baseline” and the Anemia ([2]; compared to the placebo arm) was “reduced anemia”. The 2-year survival ([2]; female non-smokers receiving paclitaxel and cisplatin) was 72.4%, the “Median survival advantage vs placebo” value ([2]; female subjects >=65 years receiving paclitaxel and cisplatin) was 2.1 months and the Median survival ([2]; female subjects receiving paclitaxel plus cisplatin, Newly Diagnosed) was 25.0 months. The Median survival ([2]; female subjects receiving paclitaxel plus cisplatin, no subsequent therapy) was 14.2 months, the Survival vs placebo ([2]; female subjects with CNS Metastases, paclitaxel plus cisplatin, P=0.0343) was “Survival advantage in favor of Tavocept” and the 2-year survival ([2]; male and female non-smokers receiving paclitaxel and cisplatin) was 63%. For the same compound, the “Median survival advantage vs placebo” value ([2]; male and female subjects >=65 years receiving paclitaxel and cisplatin) was 3.5 months, the Median survival ([2]; male and female subjects receiving paclitaxel plus cisplatin, Newly Diagnosed) was 15.3 months and the Median survival ([2]; male and female subjects receiving paclitaxel plus cisplatin, no subsequent therapy) was 10.0 months. The “Median period of additional survival after starting new chemotherapy, longer than placebo” value ([2]; patients previously receiving Tavocept, paclitaxel and cisplatin) was 3.4 months, the “Median overall survival from randomization” value ([2]; patients receiving post-study new chemotherapy, paclitaxel and cisplatin) was 23.0 months and the Median survival ([2]; subjects Newly Diagnosed at enrollment) was 14.19 months. For the same compound, the “Median survival advantage vs placebo” value ([2]; subjects greater than or equal to 65 years of age) was 3 months, the Median survival ([2]; subjects who received paclitaxel and cisplatin) was 15.4 months and the “Median survival advantage vs placebo” value ([2]; subjects who received paclitaxel and cisplatin instead of docetaxel and cisplatin) was 3.68 months. For the same compound, the Median survival ([2]; subjects with CNS Metastases present) was 11.76 months, the “Overall survival, patients receiving post study therapy” value ([2]; vs 9.2 months placebo) was 12.2 months and the “potentiation of Erlotinib inhibition of WT EGFR kinase activity” value (WT EGFR kinase; 10 μM ATP) was “slightly potentiated”. For the same compound, the “inhibition of WT EGFR kinase” value (WT EGFR kinase; 100 μM ATP, physiological concentrations (<20 mM)) was “did not notably inhibit”, the IC50 (WT EGFR kinase; IC50 on WT EGFR kinase activity, 10 μM ATP) was 24.3 ± 3.7 mM and the IC50 (WT EGFR kinase; IC50 on WT EGFR kinase activity, 100 μM ATP) was at least 40 mM. For the same compound, the IC50 (WT EGFR kinase; read-out: IC50 on WT EGFR kinase activity, 10 μM ATP) was 24.3 mM, the inhibition at 10000 µM (WT EGFR kinase; [6]) was 39% and the inhibition at 20000 µM (WT EGFR kinase; [6]) was 44%.
